Where two headings read alike, the source gives them in different places.

The subject of data set [1] is human colon carcinoma cell line HCT 116. Put plainly: Anti-proliferative activity, HCT-116 cell line (Set B). It counts as cell-based. To be noted: HCT 116 (ECACC No. 91091005), Set B Example 1. The source says:
Anti-proliferative Activity
See Example 15 of WO 2006/077426 at pages 100-101 (which is incorporated herein by reference).

Data set [2] deals with chronic lymphocytic leukaemia. Particulars: initial therapy, symptomatic CLL patients; cited from earlier work.
For data set [3] the following is noted: clinical studies; cited from earlier work.
Data set [4] deals with T1, PKG (Homo sapiens, UniProt Q13976).
T1 sequence (Q13976 1-671): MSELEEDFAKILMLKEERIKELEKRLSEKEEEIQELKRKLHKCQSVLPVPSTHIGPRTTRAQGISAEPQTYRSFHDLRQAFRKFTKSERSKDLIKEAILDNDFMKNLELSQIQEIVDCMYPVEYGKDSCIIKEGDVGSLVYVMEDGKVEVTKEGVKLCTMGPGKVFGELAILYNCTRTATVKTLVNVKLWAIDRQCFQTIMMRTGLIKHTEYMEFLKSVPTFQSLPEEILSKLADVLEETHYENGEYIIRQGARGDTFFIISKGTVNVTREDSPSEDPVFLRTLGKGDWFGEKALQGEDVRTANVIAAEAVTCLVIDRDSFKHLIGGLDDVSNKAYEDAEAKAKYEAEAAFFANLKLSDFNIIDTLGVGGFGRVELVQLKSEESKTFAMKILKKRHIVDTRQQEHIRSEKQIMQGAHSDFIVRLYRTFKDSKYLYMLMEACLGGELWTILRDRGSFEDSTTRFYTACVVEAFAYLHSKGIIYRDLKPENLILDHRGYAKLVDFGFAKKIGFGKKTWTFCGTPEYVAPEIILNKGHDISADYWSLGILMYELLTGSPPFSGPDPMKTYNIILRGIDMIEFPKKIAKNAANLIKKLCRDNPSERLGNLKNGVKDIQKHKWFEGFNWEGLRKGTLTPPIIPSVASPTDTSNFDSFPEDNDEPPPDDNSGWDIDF
To be noted: cited from earlier work.

Data set [5] has as its system PKC. Particulars: cited from earlier work.
The test system of data set [6] is OVCAR-3 tumour cells. Particulars: concentrations of 50 and 100 microM; cited from earlier work.
Data set [7] can be described thus: Thermogravimetric analysis (TGA). It counts as physicochemical. Particulars: heated at 10° C./min. How it is done:
Approximately 5 mg of sample (accurately weighed) was placed into a platinum TGA pan and loaded into a TGA 7 gravimetric analyser. The sample under study was then heated at a rate of 10° C./min (from ambient to 300° C.) and the resulting change in weight monitored. A dry nitrogen purge gas at a flow rate of 20 ml/min was used to produce an inert atmosphere and prevent oxidation of the sample during heating. Prior to analysis the instrument was weight calibrated using a 100 mg reference standard and temperature calibrated using an Alumel reference standard (using the Curie point transition temperature).

A short description of data set [8]: Vapour sorption/desorption analysis (IgaSorp balance). Type of data set: physicochemical. The procedure:
Approximately 20 mg of sample was placed into a wire-mesh vapour sorption balance pan and loaded into an ‘IgaSorp’ vapour sorption balance (Hiden Analytical Instruments) held at 25+/−0.1° C. The sample was then dried by maintaining a 0% humidity environment (using mass flow control apparatus) until no further weight change was recorded. Subsequently, the sample was then subjected to a ramping profile from 0-90% relative humidity (% RH) at 10% RH increments, maintaining the sample at each step until equilibration had been attained (99.5% step completion).
Upon reaching equilibration, the % RH within the apparatus was ramped to the next step and the equilibration procedure repeated. After completion of the sorption cycle, the sample was then dried using the same procedure. The weight change during the sorption/desorption cycles was then monitored, allowing for the hygroscopic nature of the sample to be determined.

In data set [9] the test system is Chronic Myeloid Leukaemia. To be noted: CML patients in blast phase; cited from earlier work.
A short description of data set [10]: Solubilities of acid addition salts of 1-(2,6-difluorophenyl)-N-[3-(5-morpholin-4-ylmethyl-1H-benzimidazol-2-yl)-1H-pyrazol-4-yl]-urea. It counts as physicochemical. How it is done:
This was carried out as described in Example 61 of WO 2006/070195 at pages 173 to 175 (the content of which is incorporated herein by reference).

A short description of data set [11]: Gravimetric vapour sorption (GVS). It counts as physicochemical. To be noted: forms of 1-cyclopropyl-3-[3-(5-morpholin-4-ylmethyl-1H-benzoimidazol-2-yl)-1H-pyrazol-4-yl]-urea; 25° C., 0-95% RH. How it is done:
E. Gravimetric Vapour Sorption (GVS):
The sample size was ca. 10-25 mg. […] The sample was loaded and unloaded at room humidity and temperature (ca. 40% RH, 25° C.) and analysed afterwards by XRPD (using a Bruker AXS C2 GADDS system).

Data set [12] has as its system P-glycoprotein-overexpressing subline of CCRF-CEM. Particulars: cited from earlier work.
In data set [13] the test system is Acute Promyelocytic Leukemia. Particulars: APL patients; cited from earlier work.
For data set [14] the following is noted: antitumour agent; cited from earlier work.

One may read the IC50 as the concentration needed to halve the response being measured. Regarding `O=C(NC1CCNCC1)c1n[nH]cc1NC(=O)c1c(Cl)cccc1Cl` [Example 1], the half-inhibitory concentration (IC50) in [1] is less than 20 µM.
For the compound `Nc1nc(F)nc2c1ncn2[C@@H]1O[C@H](CO)[C@@H](O)[C@@H]1O` [fludarabine], in data set [2], the “duration of progression-free survival” value is on record as 33 months and the “rate of complete responses” value is given as 27%.
Broadly, the half-life is the time in which the quantity being followed falls by half. In the case of `CCCCCCCCCCCCCCCCCCOP(=O)([O-])OC1CC[N+](C)(C)CC1` [KRX-0401], the half-life in data set [3] was roughly 100 h.
Take `O=S(=O)(NCCNCC=C(c1ccccc1)c1ccccc1)c1cccc2cnccc12` [NL-71-101]: the IC50 in [4] was 36 µM; in [5], 104 µM. Besides, in [6], the apoptosis result is “induced apoptosis”.
Turning to `CS(=O)(=O)N1CCC(NC(=O)c2n[nH]cc2NC(=O)c2c(Cl)cccc2Cl)CC1`, the “TGA significant event (thermally induced partial degradation prior to melt)” value in data set [7] (ambient to 300° C.) was “about 288 °C”. For the same compound, the TGA mass loss entry in [7] (up to 150° C., crystals from Example 5 Step 8) is “approximately 0.2%”. Moreover, the “weight loss during initial drying” value in data set [8] (0% RH, 25° C.) was “approximately 0.01%”. In addition, the “total weight increase upon equilibration” value in data set [8] (stepwise 0-90% RH, equilibration at 90% RH, 25° C.) is recorded as 0.24%. The “hygroscopicity / hydrate formation” value in data set [8] (storage in elevated humidity conditions) is on record as “physically stable with regard to hygroscopicity”.
Take `Cc1ccc(NC(=O)c2ccc(CN3CCN(C)CC3)cc2)cc1Nc1nccc(-c2cccnc2)n1` [imatinib, 4-[(4-methyl-1-piperazinyl)methyl]-N-[4-methyl-3-[[4-(3-pyridinyl)-2-ylpyridinyl]amino]-phenyl]benzamide methanesulfonate]: in [9], the duration of remissions is 2-6 months.
Usually solubility stands for how much of the substance goes into solution per volume. On to “1-(2,6-difluorophenyl)-N-[3-(5-morpholin-4-ylmethyl-1H-benzimidazol-2-yl)-1H-pyrazol-4-yl]-urea [D-glucuronate]”, for which the solubility entry in data set [10] (acid addition salts of 1-(2,6-difluorophenyl)-N-[3-(5-morpholin-4-ylmethyl-1H-benzimidazol-2-yl)-1H-pyrazol-4-yl]-urea, liquid carrier (e.g. water)) is given as “greater than 25 mg/ml”.
`C[C@H](O)C(=O)O.O=C(Nc1c[nH]nc1-c1nc2cc(CN3CCOCC3)ccc2[nH]1)NC1CC1` [L-lactate salt, 1-cyclopropyl-3-[3-(5-morpholin-4-ylmethyl-1H-benzoimidazol-2-yl)-1H-pyrazol-4-yl]-urea]: the GVS isotherm behaviour result in [11] was “does not display hygroscopic behaviour and does not form a hydrate”.
Turning to `C/C1=C/C[C@@H](/C(C)=C/c2csc(C)n2)OC(=O)C[C@H](O)C(C)(C)C(=O)[C@H](C)[C@@H](O)[C@@H](C)CCC1` [desoxyepothilone B], the IC50 in [12] was 0.017 µM.
`CC1=C(/C=C/C(C)=C/C=C/C(C)=C/C(=O)O)C(C)(C)CCC1` [Tretinoin, all-trans retinoic acid]: the remissions induced in [13] is 64-100%.
As for `O=C(Nc1c[nH]nc1-c1nc2cc(CN3CCOCC3)ccc2[nH]1)Nc1c(F)cccc1F` [esylate, 1-(2,6-difluorophenyl)-N-[3-(5-morpholin-4-ylmethyl-1H-benzimidazol-2-yl)-1H-pyrazol-4-yl]-urea], the solubility in [10] is greater than 100 mg/mL.
For the compound `CCN[C@H]1CO[C@@H](O[C@H]2[C@H](O[C@H]3C#C/C=C\C#C[C@]4(O)CC(=O)C(NC(=O)OC)=C3/C4=C\CSSSC)O[C@H](C)[C@@H](NO[C@H]3C[C@H](O)[C@H](SC(=O)c4c(C)c(I)c(O[C@@H]5O[C@@H](C)[C@H](O)[C@@H](OC)[C@H]5O)c(OC)c4OC)[C@@H](C)O3)[C@@H]2O)C[C@@H]1OC` [Calicheamicin], the “potency relative to adriamycin” value in data set [14] is listed as “over 1,000 times”.

(Values after patent US20110159111A1, “PHARMACEUTICAL COMBINATIONS” (priority 2006, published 2011).)
